# Values joined by “and” are separate entries in the source; they are usually repeats but may differ in a detail not shown here. Identical values can stand only once.
# How the values were obtained:
# [1] = test system: NF-κB; assay: NF-κB activity in NIH3T3-KBF-Luc cells stimulated with TNFα (luciferase); type: cell-based; conditions: +30 ng/ml TNFα
# Method: NIH3T3-KBF-Luc cells were stably transfected with the KBF-Luc plasmid (Sancho (2003) Mol Pharmacol 63:429-438), which contains three copies of NF-κB binding site (from major histocompatibility complex promoter), fused to a minimal simian virus 40 promoter driving the luciferase gene. Cells (1×10^4 for NIH3T3-KBF-Luc) were seeded the day before the assay on 96-well plate. Then the cells were treated with the test substances for 15 min and then stimulated with 30 ng/ml of TNFα. After 6 h, the cells were washed twice with PBS and lysed in 50 μl lysis buffer containing 25 mM Tris-phosphate (pH 7.8), 8 mM MgCl2, 1 mM DTT, 1% Triton X-100, and 7% glycerol during 15 min at RT in a horizontal shaker. Luciferase activity was measured using a GloMax 96 microplate luminometer (Promega) following the instructions of the luciferase assay kit (Promega, Madison, Wis., USA). […] The experiments for each concentration of the test items were done in triplicate wells.
# [2] = test system: matrix metallopeptidase 1 (MMP-1); assay: MMP-1 release in UVA-irradiated NHDF (ELISA); type: cell-based, human
# Method: Tests were performed with normal human dermal fibroblast cultures at the 8th passage. Cells were grown in DMEM supplemented with glutamine at 2 mM, penicillin at 50 U/mL and streptomycin (50 μg/mL) and 10% of fetal calf serum (FCS) at 37° C. in a 5% CO2 atmosphere.
# Human fibroblasts were cultured for 24 hours before the cells were pre-incubated with the test or reference compounds (dexamethasone) for another 24 hours. The medium was replaced by the irradiation medium (EBSS, CaCl2) 0.264 g/L, MgClSO4 0.2 g/L) containing the test compounds) and cells were irradiated with UVA (15 J/cm^2). The irradiation medium was replaced by culture medium including again the test compounds incubated for 48 hours. After incubation the quantity of matrix metallopeptidase 1 (MMP-1) in the culture supernatant was measured using an ELISA kit.
# [3] = test system: HaCaT cells; assay: Glucose uptake (2-NBDG) in HaCaT keratinocytes; type: cell-based; conditions: +2NBDG 50 μM, 24 h
# Method: HaCaT cells (5×10^4) were seeded in 96-well black plates and incubated for 24 h. Then, medium was removed and the cells cultivated in OptiMEM, labeled with 50 μM 2-NBDG (2-[N-(7-nitrobenz-2-oxa-1,3-diazol-4-yl) amino]-2-deoxy-D-glucose and treated with the test substances or the positive control, Rosiglitazone, for 24 h. Medium was removed and the wells were carefully washed with PBS and incubated in PBS (100 μl/well). Finally the fluorescence was measured using the Incucyte FLR software, the data were analyzed by the total green object integrated intensity (GCU×μm2×Well) of the imaging system IncuCyte HD (Essen BioScience). The fluorescence of Rosiglitazone is taken as 100% of glucose uptake, and the glucose uptake was calculated as (% Glucose uptake)=100(T−B)/(R−B), where T (treated) is the fluorescence of test substance-treated cells, B (Basal) is the fluorescence of 2-NBDG cells and […] is the fluorescence of cells treated with Rosiglitazone.
# [4] = NHDF irradiated 15 J/cm^2 UVA, 100 μM
smiles,measurement,setting,value
"C[C@@H]1O[C@@H](Oc2cc(O)cc3c2C(=O)CC(c2ccc(O)cc2)O3)[C@H](O)[C@H](O)[C@H]1O (mixture of isomers) [NR1, Naringenin-5-O-α-L-rhamnoside]",% Activation (NF-κB; TNFα = 100%),[1]; 10 μM,114.0%
same,RLU 1,[1]; 10 μM,134540 RLU
same,RLU 2,[1]; 10 μM,126580 RLU
same,RLU 3,[1]; 10 μM,130240 RLU
same,RLU MEAN,[1]; 10 μM,130453 RLU
same,RLU specific,[1]; 10 μM,93190 RLU
same,% Activation (NF-κB; TNFα = 100%),[1]; 25 μM,136.5%
same,RLU 1,[1]; 25 μM,151080 RLU
same,RLU 2,[1]; 25 μM,151840 RLU
same,RLU 3,[1]; 25 μM,143870 RLU
same,RLU MEAN,[1]; 25 μM,148930 RLU
same,RLU specific,[1]; 25 μM,111667 RLU
same,MMP-1 % Irradiated control,[2]; [4],338%
same,MMP-1 % Protection,[2]; [4],−372%
same,"MMP-1 (ng/ml), single replicates",[2]; [4],211.7 ng/mL and 268.8 ng/mL
same,Mean MMP-1,[2]; [4],240.3 ng/mL
same,upregulation of MMP-1 biosynthesis,"[2]; NHDF, UV-irradiated conditions",~4 fold
same,% Glucose uptake (Rosiglitazone = 100%),[3]; 25 μM,87.7%
same,Mean (fluorescence),[3]; 25 μM,768005
same,Measure 1 (fluorescence),[3]; 25 μM,493970
same,Measure 2 (fluorescence),[3]; 25 μM,1160754
same,Measure 3 (fluorescence),[3]; 25 μM,649291
same,RFU specific,[3]; 25 μM,761691 RFU
same,% Glucose uptake (Rosiglitazone = 100%),[3]; 50 μM,29.6%
same,Mean (fluorescence),[3]; 50 μM,263881
same,Measure 1 (fluorescence),[3]; 50 μM,278134
same,Measure 2 (fluorescence),[3]; 50 μM,256310
same,Measure 3 (fluorescence),[3]; 50 μM,257198
same,RFU specific,[3]; 50 μM,257567 RFU
